These results are taken from US6613719B1, “3-(4,5-dihydroisoxazol-3-yl)-substituted benzoylpyrazoles” (BASF Aktiengesellschaft, priority 1999, dated 2003).

Molecules are shown by their SMILES.

Broadly, the melting point is the temperature of the solid-liquid transition. `Cc1c(C(=O)c2cnn(C)c2O)ccc(S(C)(=O)=O)c1C1=NOC(CCl)C1` (stereo not shown) [Compound 2.1, 4-[2-Methyl-3-(5-chloromethyl-4,5-dihydroisoxazol-3-yl)-4-methyl-sulfonylbenzoyl]-5-hydroxy-1-methyl-1H-pyrazole] showed a melting point of 76 to 78 °C.
